Experimental findings from patent US20240150377A1, “MODULATORS OF CYSTIC FIBROSIS TRANSMEMBRANE CONDUCTANCE REGULATOR” (VERTEX PHARMACEUTICALS INCORPORATED, priority 2020, published 2024) are described below.

What all share (format): cell-based
Test [1] deals with T1, F508del (Homo sapiens, UniProt P13569, DEL508-508).
T1 construct: expressed in transfected cells
As to the kind of experiment: 3T3 assay: membrane potential optical assay for F508del correction. The following applies: F508del NIH 3T3 cells; for Emax: NIH3T3, compared to lumacaftor in combination with acutely added 300 nM Ivacaftor, read-out: 3T3 Max Activity; for EC50: 18-24 hours at 37° C., forskolin, acutely added 300 nM Ivacaftor. The text has this: 1. Membrane Potential Optical Methods for Assaying F508del Modulation Properties of Compounds
The assay utilizes fluorescent voltage sensing dyes to measure changes in membrane potential using a fluorescent plate reader (e.g., FLIPR III, Molecular Devices, Inc.) as a readout for increase in functional F508del in NIH 3T3 cells. The driving force for the response is the creation of a chloride ion gradient in conjunction with channel activation by a single liquid addition step after the cells have previously been treated with compounds and subsequently loaded with a voltage sensing dye.
2. Identification of Corrector Compounds
To identify correctors of F508del, a single-addition HTS assay format was developed. This HTS assay utilizes fluorescent voltage sensing dyes to measure changes in membrane potential on the FLIPR III as a measurement for increase in gating (conductance) of F508del in F508del NIH 3T3 cells. The F508del NIH 3T3 cell cultures were incubated with the corrector compounds at a range of concentrations for 18-24 hours at 37° C., and subsequently loaded with a redistribution dye. The driving force for the response is a Cl^− ion gradient in conjunction with channel activation with forskolin in a single liquid addition step using a fluorescent plate reader such as FLIPR III.
Bath Solution #1: (in mM) NaCl 160, KCl 4.5, CaCl2) 2, MgCl2 1, HEPES 10, pH 7.4 with NaOH.
Chloride-free bath solution: Chloride salts in Bath Solution #1 (above) are substituted with gluconate salts.
NIH3T3 mouse fibroblasts stably expressing F508del are used for optical measurements of membrane potential. The cells are maintained at 37° C. in 5% CO2 and 90% humidity in Dulbecco's modified Eagle's medium supplemented with 2 mM glutamine, 10% fetal bovine serum, 1× NEAA, b-ME, 1×pen/strep, and 25 mM HEPES in 175 cm^2 culture flasks. For all optical assays, the cells were seeded at ˜20,000/well in 384-well Matrigel-coated plates. For the correction assays, the cells are cultured at 37° C. with and without compounds for 16-24 hours.

In test [2] the target is T2, CFTR (Homo sapiens, UniProt P13569). Kind of test: Membrane potential dye, Enteroid Assay A. The settings on record: for Ent. A Max Activity: chloride transport as % of triple combination control (Enteroid Assay A); for EC50: read-out: Ent. A EC50. In outline:
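% Activity: chloride transport relative to a 3 μM/3 μM corrector pair plus 300 nM acute potentiator control. Primary human enteroid cells, 18-24 h compound exposure at 37 °C; membrane potential dye (methyl oxonol) fluorescence over 15 min after forskolin (10 μM)/IBMX (100 μM)/Compound III (300 nM) stimulation in chloride-free buffer.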

Test [3] deals with T2, CFTR. Kind of test: Membrane potential dye, Enteroid Assay B. The settings on record: for Ent. B Max Activity: chloride transport as % of triple combination control (Enteroid Assay B); for EC50: read-out: Ent. B EC50. The method, boiled down:
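Fluorescence read over 15 min after chloride-free stimulation (10 μM forskolin, 100 μM IBMX, 300 nM Compound III) gave chloride transport, reported as % activity versus a triple-corrector/potentiator control. Beforehand, human enteroid cells had 18-24 h compound exposure at 37° C and 25 min methyl oxonol dye loading at room temperature.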

Where [4] appears, read: Table 7, human enteroid cells, 18-24 hours, acute 10 μM forskolin and 300 nM ivacaftor.
The mark [5] stands for this setting: Table 6, human enteroid cells, 18-24 hours, acute 10 μM forskolin and 300 nM ivacaftor.

Where two headings read alike, the source gives them in different places. A value given as a limit tells only on which side of the number the result lay.

T2 sequence (P13569 with tags, fused parts or gaps DEL508-508): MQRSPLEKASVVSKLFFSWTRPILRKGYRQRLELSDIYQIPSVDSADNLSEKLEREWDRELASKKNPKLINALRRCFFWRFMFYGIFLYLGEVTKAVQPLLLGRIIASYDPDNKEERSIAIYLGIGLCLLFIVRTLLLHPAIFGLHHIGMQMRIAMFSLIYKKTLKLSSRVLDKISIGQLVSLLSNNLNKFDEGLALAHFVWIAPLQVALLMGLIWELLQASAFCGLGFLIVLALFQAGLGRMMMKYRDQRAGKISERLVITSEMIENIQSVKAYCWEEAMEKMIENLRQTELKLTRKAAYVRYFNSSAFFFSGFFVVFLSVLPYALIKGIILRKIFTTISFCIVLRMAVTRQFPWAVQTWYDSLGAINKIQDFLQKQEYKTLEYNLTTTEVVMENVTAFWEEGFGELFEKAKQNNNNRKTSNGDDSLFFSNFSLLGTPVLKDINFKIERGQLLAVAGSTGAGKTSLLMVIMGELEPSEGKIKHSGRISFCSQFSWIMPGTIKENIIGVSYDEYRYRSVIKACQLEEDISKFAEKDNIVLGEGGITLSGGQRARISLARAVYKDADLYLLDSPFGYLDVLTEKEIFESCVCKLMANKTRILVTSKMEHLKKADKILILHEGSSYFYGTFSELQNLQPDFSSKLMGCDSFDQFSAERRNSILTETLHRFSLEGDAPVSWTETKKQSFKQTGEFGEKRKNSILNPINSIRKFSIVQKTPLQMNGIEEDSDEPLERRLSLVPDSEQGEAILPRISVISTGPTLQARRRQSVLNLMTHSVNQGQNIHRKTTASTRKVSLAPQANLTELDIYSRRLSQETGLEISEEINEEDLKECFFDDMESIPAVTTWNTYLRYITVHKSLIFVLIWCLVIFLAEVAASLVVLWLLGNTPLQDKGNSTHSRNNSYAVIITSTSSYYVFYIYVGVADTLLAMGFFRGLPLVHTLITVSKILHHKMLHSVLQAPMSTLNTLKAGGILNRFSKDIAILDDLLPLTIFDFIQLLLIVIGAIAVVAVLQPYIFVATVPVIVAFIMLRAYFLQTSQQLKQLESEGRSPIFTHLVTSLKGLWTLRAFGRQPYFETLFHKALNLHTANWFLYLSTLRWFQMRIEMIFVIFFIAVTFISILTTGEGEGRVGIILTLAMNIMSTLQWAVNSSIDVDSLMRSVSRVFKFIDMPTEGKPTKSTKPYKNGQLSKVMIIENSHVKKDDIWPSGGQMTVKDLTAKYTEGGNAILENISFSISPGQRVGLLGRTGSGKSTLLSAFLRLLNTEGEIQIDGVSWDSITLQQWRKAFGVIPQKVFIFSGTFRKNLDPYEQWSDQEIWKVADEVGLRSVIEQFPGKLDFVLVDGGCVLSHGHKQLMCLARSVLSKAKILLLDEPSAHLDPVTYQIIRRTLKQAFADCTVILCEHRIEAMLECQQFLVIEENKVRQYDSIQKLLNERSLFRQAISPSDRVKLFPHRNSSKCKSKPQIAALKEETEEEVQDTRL
T1 sequence (P13569 with tags, fused parts or gaps DEL508-508): as above

Take `Cc1cccc(C)c1-c1cc2nc(n1)NS(=O)(=O)c1cccc(c1)C(=O)N(C)C[C@H](c1ccc(C(C)(C)C)cc1)O2` (single isomer, unassigned) [Compound 11, 10-(4-tert-Butylphenyl)-6-(2,6-dimethylphenyl)-12-methyl-2,2-dioxo-9-oxa-2λ^6-thia-3,5,12,19-tetrazatricyclo[12.3.1.14,8]nonadeca-1(18),4(19),5,7,14,16-hexaen-13-one]: in test [1] (Table 7), the Emax was above 60% and the half-maximal effective concentration (EC50) is below 1000 nM. Moreover, in test [2] (Table 7), the “Ent. A Max Activity” value is on record as “+++ (+++ is >60%)”. Moreover, the 50% effective concentration (EC50) in test [2] (setting [4]) is below 1000 nM.
Regarding `Cc1cccc(C)c1-c1cc2nc(n1)NS(=O)(=O)c1cccc(c1)C(=O)N(CCC1CCOCC1)[C@H](CCC1(C(F)(F)F)CC1)CO2` (single isomer, unassigned) [Compound 72, 6-(2,6-Dimethylphenyl)-2,2-dioxo-12-(2-tetrahydropyran-4-ylethyl)-11-[2-[1-(trifluoromethyl)cyclopropyl]ethyl]-9-oxa-2λ^6-thia-3,5,12,19-tetrazatricyclo[12.3.1.14,8]nonadeca-1(18),4(19),5,7,14,16-hexaen-13-one], in test [1] (Table 6), the Emax is above 60% and the EC50 is below 1000 nM. In addition, the “Ent. A Max Activity” value in test [2] (Table 6) is “+++ (+++ is >60%)”. Also, in test [2] (setting [5]), the EC50 is below 1000 nM.
Regarding `Cc1cccc(C)c1-c1cc2nc(n1)NS(=O)(=O)c1cccc(c1)C(=O)N(C)C[C@@H](c1ccc(C(C)(C)C)cn1)O2` (single isomer, unassigned) [Compound 102, 10-(5-tert-butyl-2-pyridyl)-6-(2,6-dimethylphenyl)-12-methyl-2,2-dioxo-9-oxa-2λ^6-thia-3,5,12,19-tetrazatricyclo[12.3.1.14,8]nonadeca-1(18),4(19),5,7,14,16-hexaen-13-one], in test [1] (Table 7), the Emax was above 60% and the EC50 is below 1000 nM. Besides, the “Ent. A Max Activity” value in test [2] (Table 7) was “+ (+ is <30%)”. Also, in test [2] (setting [4]), the 50% effective concentration (EC50) was in the range of 1000 to 3000 nM.
The like results for `Cc1cccc(C)c1-c1cc2nc(n1)NS(=O)(=O)c1cccc(c1)C(=O)N(C)C[C@H](c1ccc(C(C)(C)C)cn1)O2` (single isomer, unassigned) [Compound 103, 10-(5-tert-butyl-2-pyridyl)-6-(2,6-dimethylphenyl)-12-methyl-2,2-dioxo-9-oxa-2λ^6-thia-3,5,12,19-tetrazatricyclo[12.3.1.14,8]nonadeca-1(18),4(19),5,7,14,16-hexaen-13-one] were, in that order, above 60%, below 1000 nM, “+++ (+++ is >60%)” and below 1000 nM.
`Cc1cccc(C)c1-c1cc2nc(n1)NS(=O)(=O)c1cccc(c1)C(=O)N(C)[C@H](CC(C)C)C(c1ccc(C(C)(C)C)cn1)O2` (stereo in doubt) [Compound 1, (10S,11R)-10-(5-tert-butyl-2-pyridyl)-6-(2,6-dimethylphenyl)-11-isobutyl-12-methyl-2,2-dioxo-9-oxa-2λ^6-thia-3,5,12,19-tetrazatricyclo[12.3.1.14,8]nonadeca-1(18),4(19),5,7,14,16-hexaen-13-one]: in test [1] (Table 6), the Emax was above 60% and the 50% effective concentration (EC50) is below 1000 nM. For the same molecule, the “Ent. A Max Activity” value in test [2] (Table 6) is “+++ (+++ is >60%)”. Besides, the half-maximal effective concentration (EC50) in test [2] (setting [5]) was below 1000 nM.
Regarding `Cc1cccc(C)c1-c1cc2nc(n1)NS(=O)(=O)c1cccc(c1)C(=O)N(Cc1ccccc1)CC(c1ccccc1)O2` (stereo in doubt) [Compound 18, (10R)-12-Benzyl-6-(2,6-dimethylphenyl)-2,2-dioxo-10-phenyl-9-oxa-2λ^6-thia-3,5,12,19-tetrazatricyclo[12.3.1.14,8]nonadeca-1(18),4(19),5,7,14,16-hexaen-13-one], in test [1] (Table 6), the Emax was above 60% and the half-maximal effective concentration (EC50) was below 1000 nM. The “Ent. A Max Activity” value in test [2] (Table 6) is on record as “+++ (+++ is >60%)”. In test [2] (setting [5]), the EC50 is below 1000 nM.
`Cc1cccc(C)c1-c1cc2nc(n1)NS(=O)(=O)c1cccc(c1)C(=O)N(Cc1ccccc1)CC(Cc1ccccc1)O2` (stereo in doubt) [Compound 106, (10R)-10,12-dibenzyl-6-(2,6-dimethylphenyl)-9-oxa-2λ^6-thia-3,5,12,19-tetraazatricyclo[12.3.1.14,8]nonadeca-1(17),4(19),5,7,14(18),15-hexaene-2,2,13-trione]: the Emax in test [1] (Table 6) was above 60%. Further, the EC50 in test [1] (Table 6) and in test [2] (setting [5]) was below 1000 nM in each case. For the same molecule, the “Ent. A Max Activity” value in test [2] (Table 6) is reported as “+++ (+++ is >60%)”.
As to `Cc1cccc(C)c1-c1cc2nc(n1)NS(=O)(=O)c1cccc(c1)CN(Cc1ccnnc1)[C@H](CC(C)C)CO2` [Compound 47, (11R)-6-(2,6-dimethylphenyl)-11-(2-methylpropyl)-12-[(pyridazin-4-yl)methyl]-9-oxa-2λ^6-thia-3,5,12,19-tetraazatricyclo[12.3.1.14,8]nonadeca-1(17),4,6,8(19),14(18),15-hexaene-2,2-dione], in test [1] (Table 7), the Emax is above 60% and the EC50 was below 1000 nM. The “Ent. A Max Activity” value in test [2] (Table 7) is reported as “+++ (+++ is >60%)”. In addition, in test [2] (setting [4]), the EC50 is below 1000 nM.
In the case of `Cc1cccc(C)c1-c1cc2nc(n1)NS(=O)(=O)c1cccc(c1)C(=O)N(C)[C@H](CC(C)C)CO2` [Compound 71, (11R)-6-(2,6-Dimethylphenyl)-12-methyl-11-(2-methylpropyl)-9-oxa-2λ^6-thia-3,5,12,19-tetraazatricyclo[12.3.1.14,8]nonadeca-1(18),4(19),5,7,14,16-hexaene-2,2,13-trione], in test [1] (Table 6), the Emax was above 60% and the EC50 was below 1000 nM. In addition, the “Ent. A Max Activity” value in test [2] (Table 6) is recorded as “+++ (+++ is >60%)”. Further, the concentration giving a half-maximal response (EC50) in test [2] (setting [5]) was below 1000 nM.
With `COCCN1C(=O)c2cccc(c2)S(=O)(=O)Nc2nc(cc(-c3c(C)cccc3C)n2)OC[C@H]1CC(C)C` [Compound 363], in test [2] (Table 6), the “Ent. A Max Activity” value is listed as “+++ (+++ is >60%)”. The EC50 in test [2] (setting [5]) and in test [3] (setting [5]) was below 1000 nM in each case. In test [3] (Table 6), the “Ent. B Max Activity” value is given as “+++ (+++ is >60%)”.
As for `Cc1cccc(C)c1-c1cc2nc(n1)NS(=O)(=O)c1cccc(c1)C(=O)N(CCC(C)(C)C)C(C(F)(F)F)CO2` (stereo not shown) [Compound 373], in test [1] (Table 7), the Emax was above 60% and the EC50 lay in the range of 1000 to 3000 nM.
The corresponding values for `Cc1cccc(C)c1-c1cc2nc(n1)NS(=O)(=O)c1cccc(c1)C(=O)N(C)C[C@@H](c1ccc(C3CC3)cc1)O2` [Compound 668] are above 60% and below 1000 nM.
For `Cc1cccc(C)c1-c1cc2nc(n1)NS(=O)(=O)c1cccc(c1)C(=O)N(Cc1ccncc1)[C@H](CC(C)C)CO2` [Compound 1106], the “Ent. A Max Activity” value in test [2] (Table 7) is given as “+++ (+++ is >60%)”. Also, the EC50 in test [2] (setting [4]) and in test [3] (setting [4]) was 1000 to 3000 nM throughout. Further, the “Ent. B Max Activity” value in test [3] (Table 7) is recorded as “++ (++ is 30-60%)”.
`CCN1C(=O)c2cccc(c2)S(=O)(=O)Nc2nc(cc(-c3c(C)cccc3C)n2)O[C@@H]2CN(C3CC4(CCCC4)C3)C[C@H]21` [Compound 1192, (3R,7R)-19-(2,6-Dimethylphenyl)-8-ethyl-5-{spiro[3.4]octan-2-yl}-2-oxa-15λ^6-thia-5,8,16,18,21-pentaazatetracyclo[15.3.1.110,14.03,7]docosa-1(20),10(22),11,13,17(21),18-hexaene-9,15,15-trione]: in test [2] (Table 9), the “Ent. A Max Activity (%)” value is reported as “+++ (+++ is >600%)” and the EC50 was below 1000 nM. Also, in test [3] (Table 9), the “Ent. B Max Activity (%)” value is “++ (++ is 30-60%)” and the EC50 is below 1000 nM.
